# Measurements from US20180057505A1, “BICYCLIC HETEROARYL COMPOUNDS USEFUL AS INHIBITORS OF THE PAR-2 SIGNALING PATHWAY” (VERTEX PHARMACEUTICALS INCORPORATED, priority 2015, published 2018).
# Assays:
# Assay type in all cases: cell-based
# [1] = target: T1, PAR2 (HT-29 cells) (Homo sapiens, UniProt P55085); assay: Ca FLIPR TETRA assay, ANTAGONIST mode, activator 8 μM SLIGKV; details: HT-29 cells, activator 8 μM SLIGKV; maximal antagonist concentration per Method (A: 0.1, 1 or 2 μM; B: 50 μM)
# T1 construct: host or cells: HT-29
# T1 sequence (P55085 26-397): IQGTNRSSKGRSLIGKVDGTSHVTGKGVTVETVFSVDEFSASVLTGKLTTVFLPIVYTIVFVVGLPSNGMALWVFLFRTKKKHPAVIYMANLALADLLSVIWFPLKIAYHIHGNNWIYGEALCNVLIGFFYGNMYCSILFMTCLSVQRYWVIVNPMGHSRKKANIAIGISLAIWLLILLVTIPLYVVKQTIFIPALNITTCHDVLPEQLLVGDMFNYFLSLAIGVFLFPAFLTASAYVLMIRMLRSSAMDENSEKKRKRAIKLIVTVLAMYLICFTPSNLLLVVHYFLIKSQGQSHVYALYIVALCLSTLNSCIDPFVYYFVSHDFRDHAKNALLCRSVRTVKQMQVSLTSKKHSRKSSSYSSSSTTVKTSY
# Description: (§1) Protocol for Testing PAR2 Compounds in ANTAGONIST Mode Using the Ca FLIPR^TETRA Assay (384 Well).
# (§2) 23000 HT-29 cells (ATCC# HTB-38) were plated in 384-well black, transparent-flat bottom plates and incubated in 25 uL of 1% FBS/McCoy's media ON at 37° C. under an atmosphere of 5% CO2. The following day, 25 uL FLIPR calcium 5 Molecular Devices assay reagent (Cat: R-8186) was added. Plates were incubated at 37° C. and r. t. for 45 min and 15 min, respectively. Compounds dilutions were prepared in 100% DMSO using a Biomek FX and diluted 20-fold in HBSS and then 5.5 uL was added directly to the cells by the FLIPR^TETRA (10× dilution) using FLIPR Tetra Pipette tips, black, non-sterile, 384 Molecular Devices (Cat: 9000-0764).
# (§3) A first read was performed to determine whether the test compounds on their own can activate Ca^2+ responses. The cells were incubated with the compounds for 30 min at r. t. and then read in ANTAGONIST mode in the same plate by stimulating with 6.2 uL of a fixed concentration of the activator: final concentrations 8 μM SLIGKV, 1 U/mL Thrombin, 3.1 U/mL trypsin, or 0.6 μM UTP.
# [2] = target: T1, PAR2 (HT-29 cells); assay: Ca FLIPR TETRA assay, ANTAGONIST mode, activator 3.1 U/mL trypsin; details: HT-29 cells, activator 3.1 U/mL trypsin; maximal antagonist concentration per Method (A: 0.1, 1 or 2 μM; B: 50 μM)
# Description: as §1, §2, §3
# [3] = system: Thrombin-stimulated Ca2+ response in HT-29 cells; assay: Ca FLIPR TETRA assay, ANTAGONIST mode, activator 1 U/mL Thrombin; details: HT-29 cells, activator 1 U/mL Thrombin
# Description: as §1, §2, §3
# [4] = system: UTP-stimulated Ca2+ response in HT-29 cells; assay: Ca FLIPR TETRA assay, ANTAGONIST mode, activator 0.6 μM UTP; details: for IC50: HT-29 cells, activator 0.6 μM UTP; for inhibition at 50 µM: HT-29
# Description: as §1, §2, §3
SMILES,IC50 [1] [µM],IC50 [2] [µM],IC50 ([3]; Homo sapiens) [µM],IC50 ([4]; Homo sapiens) [µM],inhibition at 50 µM ([4]; Homo sapiens) [%],IC50 [3] [µM],IC50 [4] [µM]
CC(C)c1cc(-c2ccc(F)cc2)nc2cc(C(=O)N3CCN(C(=O)C(O)c4ccc(F)cc4)[C@@H](C)C3)oc12 (stereo partly drawn) [Example I-83],0.0045,0.0078,11,29,–,–,–
CO[C@@H](C(=O)N1CCN(C(=O)c2cc3nc(-c4ccc(F)cc4)cc(C(C)C)c3o2)C[C@@H]1C)c1ccccc1 [Example I-84],0.0063,0.029,50,> 25,–,–,–
CC(Oc1ccccc1)C(=O)N1CCN(C(=O)c2cc3nc(-c4ccc(F)cc4)cc(C(C)C)c3o2)C[C@@H]1C (stereo partly drawn) [Example I-85],0.03,0.25,> 50,> 50,–,–,–
CC(C)c1cc(-c2ccc(F)cc2)nc2cc(C(=O)N3CCN(C(=O)c4ccno4)[C@@H](C)C3)oc12 [Example I-86],0.39,0.53,> 50,–,60,–,–
CC(C)c1cc(-c2ccc(F)cc2)nc2cc(C(=O)N3CCN(C(=O)C(C)(C)O)[C@@H](C)C3)oc12 [Example I-87],3.7,3.8,19,16,–,–,–
CC(C)c1cc(-c2ccc(F)cc2)nc2cc(C(=O)N3CCN(C(=O)C4CCCCO4)[C@@H](C)C3)oc12 (stereo partly drawn) [Example I-88],0.16,0.34,17,17,–,–,–
CC(C)c1cc(-c2ccc(F)cc2)nc2cc(C(=O)N3CCN(C(=O)C4(O)CCC4)[C@@H](C)C3)oc12 [Example I-89],1,1.1,13,11,–,–,–
CC(C)c1cc(-c2ccc(F)cc2)nc2cc(C(=O)N3CCN(C(=O)[C@H](O)CC(C)(C)C)[C@@H](C)C3)oc12 [Example I-90],0.0026,0.0072,> 50,42,–,–,–
CC(C)c1cc(-c2ccc(F)cc2)nc2cc(C(=O)N3CCN(C(=O)C4(O)CCOCC4)[C@@H](C)C3)oc12 [Example I-91],3.3,3.8,9.4,11,–,–,–
CC(C)c1cc(-c2ccc(F)cc2)nc2cc(C(=O)N3CCN(C(=O)C4(O)CCC4)CC3)oc12 [Example I-92],4.7,6.2,–,–,–,7.9,7.4
CC(C)c1cc(-c2ccc(F)cc2)nc2cc(C(=O)N3CCN(C(=O)[C@@H](C)O)CC3)oc12 [Example I-93],18,16,25,29,–,–,–
CC(C)c1cc(-c2ccc(F)cc2)nc2cc(C(=O)N3CCN(C(=O)[C@H](O)CC(C)(C)C)CC3)oc12 [Example I-94],1.2,0.62,6.7,–,74,–,–
CC(C)c1cc(-c2ccc(F)cc2)nc2cc(C(=O)N3CCN(C(=O)C4(O)CCOCC4)CC3)oc12 [Example I-95],10,8.9,15,14,–,–,–
CC(C)c1cc(-c2ccc(F)cc2)nc2cc(C(=O)N3CCN(C(=O)C(C)(C)O)CC3)oc12 [Example I-96],13,12,17,14,–,–,–
CC(C)c1cc(-c2ccc(F)cc2)nc2cc(C(=O)N3CCN(C(=O)C4(O)CCC4)C[C@H]3C)oc12 [Example I-97],4.1,5.1,18,15,–,–,–
CC(C)c1cc(-c2ccc(F)cc2)nc2cc(C(=O)N3CCN(C(=O)[C@@H](C)O)C[C@H]3C)oc12 [Example I-98],5.3,7,18,20,–,–,–
CC(C)c1cc(-c2ccc(F)cc2)nc2cc(C(=O)N3CCN(C(=O)[C@H](O)CC(C)(C)C)C[C@H]3C)oc12 [Example I-99],0.062,0.43,3.9,–,63,–,–
CC(C)c1cc(-c2ccc(F)cc2)nc2cc(C(=O)N3CCN(C(=O)C4(O)CCOCC4)C[C@H]3C)oc12 [Example I-100],9.1,11,16,13,–,–,–
